Assay results taken from ChEMBL document CHEMBL4371005, “Overview of the Development of DprE1 Inhibitors for Combating the Menace of Tuberculosis” (J Med Chem, 2018).
Converted amounts (≈) assume the structure as drawn.

Tests used:
[1] = test system: Mycobacterium tuberculosis; assay: Antimycobacterial activity against Mycobacterium tuberculosis H37Rv harboring deltarv3406 dprE1 L368P after overnight incubation by REMA method; assay type: functional
[2] = test system: Mycobacterium tuberculosis; assay: Antimycobacterial activity against Mycobacterium tuberculosis H37Rv harboring rv3405c mutant TRC4 after overnight incubation by REMA method; assay type: functional

SMILES	MIC99 [1] [µM]	MIC99 [2] [µM]
O=C(O)c1nc2ccc(C(F)(F)F)cc2nc1NCc1ccc(F)cc1	25 (≈ 9.13 µg/mL)	25 (≈ 9.13 µg/mL)
COc1ccc(CNc2nc3cc(C(F)(F)F)ccc3nc2C(=O)O)cc1	12.5 (≈ 4.72 µg/mL)	6.3 (≈ 2.38 µg/mL)
CCOC(=O)c1nc2ccc(C(F)(F)F)cc2nc1NCc1ccc(OC)cc1	12.5 to 25	6.3 (≈ 2.55 µg/mL)
COc1ccc(CNc2nc3cc(C(F)(F)F)ccc3nc2C(=O)O)cc1F	25 (≈ 9.88 µg/mL)	12.5 (≈ 4.94 µg/mL)
CCOc1ccc(CNc2nc3cc(C(F)(F)F)ccc3nc2C(=O)O)cc1	12.5 (≈ 4.89 µg/mL)	6.3 (≈ 2.47 µg/mL)
N#Cc1ccc(CNc2nc3cc(C(F)(F)F)ccc3nc2C(=O)O)cc1	100 (≈ 37.2 µg/mL)	50 (≈ 18.6 µg/mL)
O=C(O)c1nc2ccc(C(F)(F)F)cc2nc1NCc1ccc(C(F)(F)F)cc1	25 (≈ 10.4 µg/mL)	12.5 (≈ 5.19 µg/mL)
O=C(O)c1nc2ccc(C(F)(F)F)cc2nc1NCc1ccc(Cl)cc1	25 (≈ 9.54 µg/mL)	12.5 (≈ 4.77 µg/mL)
